This is an account of results in PubChem BioAssay AID1996.

Converted amounts (≈) assume the structure as drawn. Where only a bound is given, the exact number is not on record here.

Broadly, the solubility (kinetic) is solubility judged after dilution from a stock solution rather than from solid.

The conditions of the series: buffer; pH 7.4; 200.0 µM.
In turn, `O=C(O)c1ccc(CN2C(=O)c3ccc(C(=O)O)cc3C2=O)cc1` showed a kinetic solubility of over 48.8 µg/mL.
The result for `N#CC1(NC(=O)Cn2cc(C(F)(F)F)cc(Cl)c2=O)CCCCC1` reads 13.8 µg/mL (≈ 38.1 µM); that for `COc1ccc(OCC(O)CNS(=O)(=O)c2ccc(C)cc2)cc1` (stereo unspecified), over 52.7 µg/mL.
The result for `Cc1ccc(NC(=O)C(C)N2C(=O)c3ccccc3C2=O)c(C)c1` (stereo unspecified) reads 29.7 µg/mL (≈ 92.1 µM).
To `O=C(Nc1cccc2ccccc12)c1ccccc1Cl` belongs 1.7 µg/mL (≈ 6.03 µM); to `C=CCOc1ccc(C(=O)n2cc(C(=O)OC)c3ccccc32)cc1`, under 0.7 µg/mL; to `CCOC(=O)C1CCCN(C(=O)COC(=O)c2cccs2)C1` (stereo unspecified), 47.6 µg/mL (≈ 146 µM).
Turning to `CC(SCC(=O)O)c1nc2ccccc2[nH]1` (stereo unspecified), the kinetic solubility was over 35.4 µg/mL.
To `Nc1nc(-c2nonc2N)no1` belongs over 25.2 µg/mL.
The result for `O=C(O)c1ccccc1C(=O)N1CCN(c2ncccn2)CC1` reads over 46.8 µg/mL; that for `O=C(CN1CCCCCC1)Nc1cccc([N+](=O)[O-])c1`, over 41.6 µg/mL; that for `COc1ccc(N2C(=O)Cc3ccccc3C2=O)cc1`, 39.3 µg/mL (≈ 147 µM).
The result for `CC(=O)c1ccc(NC(=O)NCc2ccc(F)cc2)cc1` reads 7.8 µg/mL (≈ 27.2 µM); that for `O=C(C[n+]1cc[nH]c1)c1ccc(Cl)cc1.[Cl-]`, over 38.6 µg/mL; that for `CCNC(=S)NCc1ccc(OC)c(OC)c1`, over 38.2 µg/mL.
In turn, `Cc1nc(C)c(C)nc1C` came in with a solubility (kinetic) of under 0.1 µg/mL.
For the compound `Cn1c(=O)oc2cc(S(=O)(=O)NC3CCCCC3)ccc21`, the kinetic solubility is over 46.6 µg/mL.
The compound `Cc1c(C=Nc2ccc(S(=O)(=O)CCO)cc2)c(O)[nH]c(=O)c1C#N` displayed a kinetic solubility of over 54.2 µg/mL.
The result for `S=C(NCC1COc2ccccc2O1)Nc1ccccc1` (stereo unspecified) reads 6.5 µg/mL (≈ 21.6 µM); that for `COc1cccc(C(=O)N2CCN=C2SC)c1`, 35.1 µg/mL (≈ 140 µM); that for `COc1ccc(NS(=O)(=O)c2cc(C(=O)N3CCCCCC3)ccc2C)cc1`, over 60.4 µg/mL.
To `CCOC(=O)c1ccc(N=C(C)c2c(O)[nH]c(=O)[nH]c2=O)cc1` belongs 6.6 µg/mL (≈ 20.8 µM); to `CC(=O)NC(C)CCc1ccccc1` (stereo unspecified), over 28.7 µg/mL.
The result for `CC(C)c1ccc(NC(=O)CCc2ccccc2)cc1` reads 3.9 µg/mL (≈ 14.6 µM).
`CC(C)NC(=O)c1ccc(COc2ccc(C(C)(C)C)cc2)o1` yielded a solubility (kinetic) of 0.7 µg/mL (≈ 2.22 µM).
Regarding `CCn1cc(S(=O)(=O)N2CCc3ccccc3C2)cn1`, the kinetic solubility is over 43.7 µg/mL.
Regarding `COc1ccccc1Nc1nc(NCCCN(C)C)nc(N)c1[N+](=O)[O-]`, the kinetic solubility was over 54.2 µg/mL.
To `Cc1ccc(NC(=O)CCNC(=O)c2ccc(Cl)cc2)cc1C` belongs 1.7 µg/mL (≈ 5.14 µM); to `CN1CC(C(=O)O)Cc2c1ccc1ccccc21` (stereo unspecified), 31.7 µg/mL (≈ 131 µM); to `O=S1(=O)CCN(CCc2c[nH]c3ccccc23)CC1`, 38.2 µg/mL (≈ 137 µM).
To `O=C(Nc1ccc(C(=O)c2ccccc2)cc1)c1ccccc1` belongs under 0.6 µg/mL; to `CCOc1cc2c(C#N)c(N3CCCCC3)nc(N)c2c(N)n1`, 10.6 µg/mL (≈ 33.9 µM).
To `CCCCC(CC)COCCCN=Cc1c(O)[nH]c(=S)[nH]c1=O` (stereo unspecified) belongs 4.1 µg/mL (≈ 12 µM).
On to `CCCCOc1ccc(C(=O)OCC(=O)c2c(N)n(C)c(=O)n(C)c2=O)cc1`, for which the solubility (kinetic) is 4.4 µg/mL (≈ 11.3 µM).
In turn, `Cc1ccccc1OCC(=O)OCC(=O)NCc1ccc2c(c1)OCO2` displayed a solubility (kinetic) of 17.3 µg/mL (≈ 48.4 µM).
Compound `O=S(=O)(NC1CC2CCC1C2)c1ccc(Cl)cc1` (stereo unspecified) showed a kinetic solubility of 38.4 µg/mL (≈ 134 µM).
The compound `CC(C(=O)NC1CCCCCC1)c1ccc([N+](=O)[O-])cc1` (stereo unspecified) showed a kinetic solubility of 7.1 µg/mL (≈ 24.5 µM).
To `CN(C)C(=O)Oc1ccc2c(c1)O/C(=C\c1cccc([N+](=O)[O-])c1)C2=O` belongs under 0.4 µg/mL.
Take `Cc1nc(SCC(N)=O)c(C#N)c(C)c1C`: the solubility (kinetic) was found to be 4.4 µg/mL (≈ 18.7 µM).
To `O=C(COC(=O)/C=C/c1cccs1)Nc1ccc(F)cc1` belongs 8.4 µg/mL (≈ 27.5 µM); to `NS(=O)(=O)c1ccc(CCNC(=O)C2CCN(C(=O)Nc3ccccc3)CC2)cc1`, 63.9 µg/mL (≈ 148 µM).
`Cc1ccc(S(=O)(=O)/N=C(/Nc2ccc([N+](=O)[O-])cc2[N+](=O)[O-])c2ccccc2)cc1`: the solubility (kinetic) was 5.9 µg/mL (≈ 13.4 µM).
`Cc1c(Cl)cccc1NC(=S)NCc1ccc(F)cc1`: the kinetic solubility is 3.7 µg/mL (≈ 12 µM).
`Cc1cc(NS(=O)(=O)c2c(C)c(C)cc(C)c2C)no1` gave a kinetic solubility of over 44.2 µg/mL.
To `Cl.NC(CCC(=O)O)C12CC3CC(CC(C3)C1)C2` (stereo unspecified) belongs over 41.1 µg/mL.
The result for `O=c1[nH]c(-c2ccccc2)ncc1Oc1ccccc1` reads 33.7 µg/mL (≈ 128 µM); that for `O=C(COC(=O)c1ccc([N+](=O)[O-])o1)NCc1ccc(F)cc1`, over 48.3 µg/mL.
To `COc1ccc(C2c3ccsc3CCN2C(=O)C(C)(C)C)cc1` (stereo unspecified) belongs 14.9 µg/mL (≈ 45.2 µM); to `O=C(CN1C(=O)NC(c2ccc(F)cc2)C1=O)NC1CCCCC1` (stereo unspecified), over 50 µg/mL.
The compound `CN1CCC2(CC1)C(C#N)=C(N)NC(S)=C2C#N` yielded a solubility (kinetic) of over 39.2 µg/mL.
The result for `CN(C)c1ccc(S(=O)(=O)N2CCCCC2)cc1NC(=O)C1=COCCO1` reads 12 µg/mL (≈ 30.3 µM).
